Biological target: T1, human GPR40 (Homo sapiens, UniProt O14842)
T1 construct: expressed in transfected cells; host or cells: CHO-K1
Experiment: Induction of Ca2+ (calcium flux assay) using human GPR40 expression cell line
Type: cell-based
Conditions: read-out: EC0.5
Procedure, shortened: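 Read-out is intracellular Ca2+ flux on FlexStation after test compounds (DMSO stocks diluted 200-fold in assay buffer) were added to dye-loaded human GPR40/CHO-K1 cells. Cells had been cultured 24 h, then incubated 1 h at 37° C with Calcium 5 dye, HBSS-HEPES pH 7.4; EC0.5 from concentration plot.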

T1 sequence (O14842 whole entry): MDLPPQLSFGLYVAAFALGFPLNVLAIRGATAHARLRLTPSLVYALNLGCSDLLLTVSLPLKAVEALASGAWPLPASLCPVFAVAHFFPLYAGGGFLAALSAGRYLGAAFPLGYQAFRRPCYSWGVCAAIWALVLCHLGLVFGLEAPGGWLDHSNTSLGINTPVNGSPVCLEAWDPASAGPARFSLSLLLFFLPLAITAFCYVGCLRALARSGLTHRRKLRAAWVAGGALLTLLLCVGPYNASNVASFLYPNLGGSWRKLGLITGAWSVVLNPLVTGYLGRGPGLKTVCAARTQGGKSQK

Molecule `CC#C[C@@H](CC(=O)O)c1ccc(OCc2cc(C)c3nn(Cc4ccccc4)cc3c2)cc1` [Example 127, (S)-3-[4-(2-benzyl-7-methyl-2H-indazol-5-ylmethoxy)-phenyl]-hex-4-ynoic acid] has an EC50 of 1 to 50 nM.
Molecule `CC#C[C@@H](CC(=O)O)c1ccc(OCc2ccc3c(cnn3Cc3cccnc3)c2)cc1` [Example 147, (S)-3-[4-(1-pyridin-3-ylmethyl-1H-indazol-5-ylmethoxy)-phenyl]-hex-4-ynoic acid] has an EC50 of 1 to 50 nM.
Work on `CC#C[C@@H](CC(=O)O)c1ccc(OCc2ccc3c(CN4CC[C@H](F)C4)nn(CC(C)C)c3c2C)cc1` [Example 229, (S)-3-{4-[3-((S)-3-fluoro-pyrrolidin-1-ylmethyl)-1-isobutyl-7-methyl-1H-indazol-6-ylmethoxy]-phenyl}-hex-4-ynoic acid] yielded an EC50 of 35 nM.
Molecule `CC(C)Cn1ncc2ccc(COc3ccc([C@H](CC(=O)O)c4ccon4)cc3)cc21` [Example 87, (S)-3-[4-(1-isobutyl-1H-indazol-6-ylmethoxy)-phenyl]-3-isoxazol-3-yl-propanoic acid] has an EC50 of 10 nM.
For `CC(C)n1ncc2ccc(COc3ccc([C@H](CC(=O)O)c4ccon4)cc3)cc21` [Example 96, (S)-3-[4-(1-isopropyl-1H-indazol-6-ylmethoxy)-phenyl]-3-isoxazol-3-yl-propanoic acid], the EC50 was 30 nM.
`CC#C[C@@H](CC(=O)O)c1ccc(OCc2ccc3c(F)cn(Cc4ccccc4)c3c2C)cc1` [Example 62, (S)-3-[4-(1-benzyl-3-fluoro-7-methyl-1H-indol-6-ylmethoxy)-phenyl]-hex-4-ynoic acid] showed an EC50 of 50 to 500 nM.
With `CC#C[C@@H](CC(=O)O)c1ccc(OCc2ccc3nn(Cc4ccccc4)cc3c2)cc1` [Example 112, (S)-3-[4-(2-benzyl-2H-indazol-5-ylmethoxy)-phenyl]-hex-4-ynoic acid] the EC50 was 1 to 50 nM.
With `CC#C[C@@H](CC(=O)O)c1ccc(OCc2cccc3c2c(Cl)nn3CC(C)C)cc1` [Example 192, (S)-3-[4-(3-chloro-1-isobutyl-1H-indazol-4-ylmethoxy)-phenyl]-hex-4-ynoic acid] the EC50 was 30 nM.
With `CC#C[C@@H](CC(=O)O)c1ccc(OCc2ccc3ccn(CC(C)C)c3n2)cc1` [Example 115, (S)-3-[4-(1-isobutyl-1H-pyrrolo[2,3-b]pyridin-6-ylmethoxy)-phenyl]-hex-4-ynoic acid] the EC50 was 1 to 50 nM.
`O=C(O)CCc1ccc(OCc2ccc3cnn(CC4CCCC4)c3c2)cc1F` [Example 107, 3-[4-(1-cyclopentylmethyl-1H-indazol-6-ylmethoxy)-2-fluoro-phenyl]-propanoic acid] was tested, and the EC50 was 200 nM.
`CC#C[C@@H](CC(=O)O)c1ccc(OCc2ccc3c(CN4CCCC(F)(F)C4)cn(CC(C)C)c3n2)cc1` [Example 232, (S)-3-{4-[3-(3,3-difluoro-piperidin-1-ylmethyl)-1-isobutyl-1H-pyrrolo[2,3-b]pyridin-6-ylmethoxy]-phenyl}-hex-4-ynoic acid] showed an EC50 of 12 nM.
`CC#C[C@@H](CC(=O)O)c1ccc(OCc2ccc3cnn(CCC)c3c2C)cc1` [Example 221, (S)-3-[4-(7-methyl-1-propyl-1H-indazol-6-ylmethoxy)-phenyl]-hex-4-ynoic acid] gave an EC50 of 5 nM.
With `CC#C[C@@H](CC(=O)O)c1ccc(OCc2ccc3cn(Cc4ncccn4)nc3c2)cc1` [Example 69, (S)-3-[4-(2-pyrimidin-2-ylmethyl-2H-indazol-6-ylmethoxy]-phenyl}-hex-4-ynoic acid] the EC50 was no less than 500 nM.
`Cc1cc(F)ccc1-n1cc(Cl)c2ccc(COc3ccc(CCC(=O)O)cc3)cc21` [Example 22, 3-{4-[3-chloro-1-(4-fluoro-2-methyl-phenyl)-1H-indol-6-ylmethoxy)-phenyl]-propanoic acid] gave an EC50 of 40 nM.
`CC#C[C@@H](CC(=O)O)c1ccc(OCc2cc3c(cnn3Cc3ccccc3)cc2F)cc1` [Example 122, (S)-3-[4-(1-benzyl-5-fluoro-1H-indazol-6-ylmethoxy)-phenyl]-hex-4-ynoic acid] showed an EC50 of 1 to 50 nM.
For `O=C(O)CC1CCOc2cc(OCc3ccc4c(cnn4Cc4cccnc4)c3)ccc21` (stereo not drawn) [Example 148, [7-(1-pyridin-3-ylmethyl-1H-indazol-5-ylmethoxy)-chroman-4-yl]-acetic acid], the EC50 was no less than 500 nM.
Molecule `CC#C[C@@H](CC(=O)O)c1ccc(OCc2ccc3c(cnn3C3CCCC3)c2)cc1` [Example 164, (S)-3-[4-(1-cyclopentyl-1H-indazol-5-ylmethoxy)-phenyl]-hex-4-ynoic acid] has an EC50 of 1 to 50 nM.
For `Cc1cc(F)ccc1-n1ccc2ccc(COc3ccc(CCC(=O)O)cc3)cc21` [Example 17, 3-{4-[1-(4-fluoro-2-methyl-phenyl)-1H-indol-6-ylmethoxy]-phenyl}-propanoic acid], the EC50 was 7 nM.
With `O=C(O)CC1CCCc2cc(OCc3ccc4c(cnn4Cc4ccccc4)c3)ccc21` (stereo not drawn) [Example 119, [6-(1-benzyl-1H-indazol-5-ylmethoxy)-1,2,3,4-tetrahydro-naphthalen-1-yl]-acetic acid] the EC50 was 60 nM.
For `CC#C[C@@H](CC(=O)O)c1ccc(OCc2cc(C)c3c(cnn3C(C)C)c2)cc1` [Example 168, (S)-3-[4-(1-isopropyl-7-methyl-1H-indazol-5-ylmethoxy)-phenyl]-hex-4-ynoic acid], the EC50 was 1 to 50 nM.
`CC#C[C@@H](CC(=O)O)c1ccc(OCc2ccc3c(cnn3CCOC)c2)cc1` [Example 175, (S)-3-{4-[1-(2-methoxy-ethyl)-1H-indazol-5-ylmethoxy]-phenyl}-hex-4-ynoic acid] was tested, and the EC50 was 50 to 500 nM.
`CC#C[C@@H](CC(=O)O)c1ccc(OCc2ccc3c(C)nn(CC(C)C)c3c2C)cc1` [Example 212, (S)-3-[4-(1-isobutyl-3,7-dimethyl-1H-indazol-6-ylmethoxy)-phenyl]-hex-4-ynoic acid] gave an EC50 of 2 nM.
`CC#C[C@@H](CC(=O)O)c1ccc(OCc2ccc3ccn(Cc4c(C)cccc4C)c3c2C)cc1` [Example 39, (S)-3-{4-[1-(2,6-dimethyl-benzyl)-7-methyl-1H-indol-6-ylmethoxy]-phenyl}-hex-4-ynoic acid] gave an EC50 of 200 nM.
For `CC#C[C@@H](CC(=O)O)c1ccc(OCc2c(F)cc3ccn(Cc4ccccc4)c3c2C)cc1` [Example 49, (S)-3-[4-(1-benzyl-5-fluoro-7-methyl-1H-indol-6-ylmethoxy)-phenyl]-hex-4-ynoic acid], the EC50 was 50 to 500 nM.
`O=C(O)CC1CCOc2cc(OCc3ccc4c(cnn4CC4CCCCC4)c3)ccc21` (stereo not drawn) [Example 139, [7-(1-cyclohexyl methyl-1H-indazol-5-ylmethoxy)-chroman-4-yl]-acetic acid] was tested, and the EC50 was 300 nM.
With `O=C(O)CC1CCOc2cc(OCc3ccc4c(cnn4CCc4ccccc4)c3)ccc21` (stereo not drawn) [Example 135, [7-(1-phenethyl-1H-indazol-5-ylmethoxy)-chroman-4-yl]-acetic acid] the EC50 was 200 nM.
Work on `CC#C[C@@H](CC(=O)O)c1ccc(OCc2cccc3c(C(C)C)nn(C)c23)cc1` [Example 209, (S)-3-[4-(3-isopropyl-1-methyl-1H-indazol-7-ylmethoxy)-phenyl]-hex-4-ynoic acid] yielded an EC50 of 1 to 50 nM.
`CC#C[C@@H](CC(=O)O)c1ccc(OCc2ccc3cn(Cc4cnc(C)cn4)nc3c2)cc1` [Example 74, (S)-3-{4-[2-(5-methyl-pyrazin-2-ylmethyl)-2H-indazol-6-ylmethoxy]-phenyl}-hex-4-ynoic acid] showed an EC50 of no less than 500 nM.
With `CC#C[C@@H](CC(=O)O)c1ccc(OCc2ccc3c(COC)nn(CC(C)C)c3c2C)cc1` [Example 196, (S)-3-[4-(1-isobutyl-3-methoxymethyl-7-methyl-1H-indazol-6-ylmethoxy)-phenyl]-hex-4-ynoic acid] the EC50 was 5 nM.
`CC#C[C@@H](CC(=O)O)c1ccc(OCc2ccc3cnn(Cc4cnn(C)c4)c3c2)cc1` [Example 82, (S)-3-{4-[1-(1-methyl-1H-pyrazol-4-ylmethyl)-1H-indazol-6-ylmethoxy]-phenyl}-hex-4-ynoic acid] gave an EC50 of 50 to 500 nM.
In the case of `CC#C[C@@H](CC(=O)O)c1ccc(OCc2ccc3ccn(Cc4ccncn4)c3c2C)cc1` [Example 61, (S)-3-[4-(7-methyl-1-pyrimidin-4-ylmethyl-1H-indol-6-ylmethoxy)-phenyl]-hex-4-ynoic acid], the EC50 is reported as 1 to 50 nM.
Work on `CC#C[C@@H](CC(=O)O)c1ccc(OCc2ccc3cnn(Cc4ccccc4)c3c2)cc1` [Example 59, (S)-3-[4-(1-benzyl-1H-indazol-6-ylmethoxy)-phenyl]-hex-4-ynoic acid] yielded an EC50 of 1 to 50 nM.
`CC#C[C@@H](CC(=O)O)c1ccc(OCc2ccc3c(CN4CCCC(F)(F)C4)nn(CC(C)C)c3c2C)cc1` [Example 227, (S)-3-{4-[3-(3,3-difluoro-piperidin-1-ylmethyl)-1-isobutyl-7-methyl-1H-indazol-6-ylmethoxy]-phenyl}-hex-4-ynoic acid] showed an EC50 of 5 nM.
`CC#C[C@@H](CC(=O)O)c1ccc(OCc2ccc3ccn(Cc4ccc(CS(C)(=O)=O)cc4)c3c2C)cc1` [Example 45, (S)-3-{4-[1-(4-methanesulfonylmethyl-benzyl)-7-methyl-1H-indol-6-ylmethoxy]-phenyl}-hex-4-ynoic acid] was tested, and the EC50 was 1 to 50 nM.
Molecule `CC#C[C@@H](CC(=O)O)c1ccc(OCc2ccc3c(CN4CCCCC4)nn(CC(C)C)c3c2C)cc1` [Example 218, (S)-3-[4-(1-isobutyl-7-methyl-3-piperidin-1-ylmethyl-1H-indazol-6-ylmethoxy)-phenyl]-hex-4-ynoic acid] has an EC50 of 14 nM.
In the case of `O=C(O)CC1COc2cc(OCc3ccc4cnn(Cc5ccccc5)c4c3)ccc21` (stereo not drawn) [Example 105, [6-(1-benzyl-1H-indazol-6-ylmethoxy)-2,3-dihydro-benzofuran-3-yl]-acetic acid], the EC50 is reported as 400 nM.
`CC#C[C@@H](CC(=O)O)c1ccc(OCc2cccc3c2cnn3Cc2ccccc2)cc1` [Example 48, (S)-3-[4-(1-benzyl-1H-indazol-4-ylmethoxy)-phenyl]-hex-4-ynoic acid] gave an EC50 of 1 to 50 nM.
With `O=C(O)C1CC1c1ccc(OCc2ccc3cnn(Cc4ccccc4)c3c2)cc1` (stereo not drawn) [Example 167, 2-[4-(1-benzyl-1H-indazol-6-ylmethoxy)-phenyl]-cyclopropane carboxylic acid] the EC50 was 60 nM.
Molecule `CC#C[C@@H](CC(=O)O)c1ccc(OCc2ccc3c(cnn3CCCOC)c2)cc1` [Example 176, (S)-3-{4-[1-(3-methoxy-propyl)-1H-indazol-5-ylmethoxy]-phenyl}-hex-4-ynoic acid] has an EC50 of 40 nM.

— patent publication US9988379B2, “GPR40 receptor agonist, methods of preparing the same, and pharmaceutical compositions containing the same as an active agent” (LG CHEM, LTD., priority 2012, dated 2018)
